Measurements reported in patent publication EP4711364A1, “FUSED PYRROLE RING OR FUSED PYRIDINE RING COMPOUND” (Pharmaengine, Inc., priority 2023, dated 2024).

What was measured:
[1] = target: T1, NanoLuc-PKMYT1 fusion construct (Homo sapiens, UniProt Q99640); experiment: cell-based; assay type: binding; conditions: HEK293 cell lines transiently expressing NanoLuc-PKMYT1; NanoBRET tracer; test compounds for 2 hours
T1 construct: expressed in transfected cells; host or cells: HEK293 (transient expression)
T1 sequence (Q99640 1-499): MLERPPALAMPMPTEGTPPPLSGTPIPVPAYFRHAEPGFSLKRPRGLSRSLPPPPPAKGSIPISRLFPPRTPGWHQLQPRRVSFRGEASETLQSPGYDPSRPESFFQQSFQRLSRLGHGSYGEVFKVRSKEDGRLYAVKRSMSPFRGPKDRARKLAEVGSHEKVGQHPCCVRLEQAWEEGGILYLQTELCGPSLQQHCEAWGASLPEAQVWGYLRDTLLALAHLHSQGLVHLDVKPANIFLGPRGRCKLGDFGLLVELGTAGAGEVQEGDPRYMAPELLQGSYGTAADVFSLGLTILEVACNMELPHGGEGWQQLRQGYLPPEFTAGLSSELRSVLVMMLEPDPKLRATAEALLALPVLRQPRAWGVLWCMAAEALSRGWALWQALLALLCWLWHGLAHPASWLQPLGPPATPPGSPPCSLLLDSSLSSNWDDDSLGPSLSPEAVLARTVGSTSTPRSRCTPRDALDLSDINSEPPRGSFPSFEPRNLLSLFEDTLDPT
Experimental: HEK293 cell lines transiently expressing the NanoLuc-PKMYT1 fusion construct were seeded into wells of a 3 84-well plate. Cells were pretreated with NanoBRET tracer, then treated with test compounds for 2 hours. BRET signals were measured on an Envision multimode plate reader at 450 nm and 610 nm. IC50 values were calculated, and IC50 curves were plotted using GraphPad Prism with a four-parameter nonlinear regression model.

HCC1569 = experiment: Cell Proliferation Assay (CellTiter-Glo); assay type: cell-based; conditions: Homo sapiens, 168 h, CCNE1-amplified breast cancer cell line HCC1569, incubated for 7 days
Experimental: The sensitivity of cancer cell lines with normal or elevated CCNE1 levels to test compounds was evaluated in a cell proliferation assay. Cell lines were maintained in ATCC-recommended culture media supplemented with 10% FBS and 1% penicillin/streptomycin in a humidified 5% CO2 incubator. All test compounds were stored as 20 mM DMSO stock solutions.
On Day 0, CCNE1-wild type (wt) and CCNE1-amplified (amp) cells were seeded into 384-well plates and incubated for 16 to 24 hours in a humidified 5% CO2 incubator. On Day 1, test compounds were dispensed into wells at specified concentrations (n=2), with DMSO volume normalized to the highest concentration. Plates with compound-treated cells were incubated for 7 days in a humidified 5% CO2 incubator.
On Day 7, plates were removed from the incubator and equilibrated to room temperature. Relative inhibition was assessed by adding CellTiter-Glo reagent. Data were plotted as a percentage of the DMSO control for each compound in each cell line. IC50 values were calculated using a four-parameter nonlinear regression model (GraphPad Prism). Table 1: Cell viability data

Compound | IC50 [1] | IC50 (HCC1569)
Cc1nc2c3c(c1C)C=CNC(=O)c3c(N)n2-c1c(C)c(F)cc2[nH]ncc12 [Compound 138] | 19.8 nM | > 1000 nM
Cc1cc2c(C(N)=O)c(N)n(-c3c(C)ccc(O)c3C)c2nc1C [Rp6306, reference compound] |  | 18 nM
Cc1nc2c3c(c1C)C=CNC(=O)c3c(N)n2-c1c(Cl)cc(F)c2[nH]ncc12 [Compound 136] | 21.6 nM | > 1000 nM
Cc1ccc2[nH]ncc2c1-n1c(N)c2c3c(c(C)c(C)nc31)C=CNC2=O [Compound 126] | 5.5 nM | 666 nM
Cc1nc2c3c(c1C)C=CNC(=O)c3c(N)n2-c1c(Cl)c(F)cc2[nH]ncc12 [Compound 137] | 22.5 nM | 566 nM
